Data: patent publication US4647572A, “Iodoallyl and iodopropargyl substituted tetrazoles and anti-microbial compositions thereof” (Meiji Seika Kaisha, Ltd., priority 1982, dated 1987)
Converted amounts (≈) assume the structure as drawn. Read-outs that look alike come from different tables or passages of the source.

What was measured:
Format in all cases: cell-based
[1] = test system: Staphylococcus aureus 209P; experiment: Antibacterial activity (Paper-disc method); settings: read-out: Inhibition zone diameter
[2] = test system: Bacillus subtilis; experiment: Antibacterial activity (Paper-disc method); settings: read-out: Inhibition zone diameter
[3] = test system: Sarcina lutea; experiment: Antibacterial activity (Paper-disc method); settings: Micrococcus luteus, read-out: Inhibition zone diameter
[4] = test system: Escherichia coli NIHJ JC-2; experiment: Antibacterial activity (Paper-disc method); settings: read-out: Inhibition zone diameter
[5] = test system: Candida albicans GA-24; experiment: Antifungal Activity MIC (in medicinal field); settings: GA24, read-out: Minimal Inhibitory Concentration (MIC)
[6] = test system: Trichophyton metagrophytes 530324; experiment: Antifungal Activity MIC (in medicinal field); settings: read-out: Minimal Inhibitory Concentration (MIC)
[7] = test system: Trichophyton interdigitale; experiment: Antifungal Activity MIC (in medicinal field); settings: read-out: Minimal Inhibitory Concentration (MIC)
[8] = test system: Aspergillus fumigatus Saito; experiment: Antifungal Activity MIC (in medicinal field); settings: read-out: Minimal Inhibitory Concentration (MIC)
[9] = test system: Staphylococcus aureus 209P JC-1; experiment: Minimal Inhibitory Concentration Method; settings: read-out: Minimal Inhibitory Conc.
[10] = test system: Bacillus anthracis No. 119; experiment: microbe, parasite or virus in culture; settings: NO.119, read-out: Minimal Inhibitory Conc.
[11] = test system: Escherichia coli NIHJ JC-2; experiment: Minimal Inhibitory Concentration Method; settings: NIHJJC2, read-out: Minimal Inhibitory Conc.
[12] = test system: Salmonella typhi 0-901-W; experiment: Minimal Inhibitory Concentration Method; settings: Salmonella enterica, read-out: Minimal Inhibitory Conc.
[13] = test system: Shigella sonnei EW 33 type I; experiment: Minimal Inhibitory Concentration Method; settings: EW33TYPEI, read-out: Minimal Inhibitory Conc.
Excerpt: (Minimal Inhibitory Concentration Method)
Minimal Inhibitory Conc. (mcg/ml)

[14] = test system: Klebsiella pneumoniae PCI 602; experiment: Minimal Inhibitory Concentration Method; settings: PCI602, read-out: Minimal Inhibitory Conc.
[15] = test system: Proteus vulgaris OX-19; experiment: Minimal Inhibitory Concentration Method
[16] = test system: Serratia marcescens MB-3848; experiment: Minimal Inhibitory Concentration Method
[17] = test system: Pseudomonas cepacia M-0527; experiment: Minimal Inhibitory Concentration Method; settings: Burkholderia cepacia, M0527, read-out: Minimal Inhibitory Conc.
[18] = test system: Pseudomonas maltiophilia M-0627; experiment: Minimal Inhibitory Concentration Method; settings: M0627, read-out: Minimal Inhibitory Conc.
[19] = test system: Cryptococcus neoformans Cr-1; experiment: Antifungal Activity MIC (in medicinal field); settings: CR1, read-out: Minimal Inhibitory Concentration (MIC)
[20] = test system: Staphylococcus epidermidis ATCC 14990; experiment: Minimal Inhibitory Concentration Method; settings: ATCC14990, read-out: Minimal Inhibitory Conc.
[21] = test system: Bacillus subtilis ATCC 6633; experiment: Minimal Inhibitory Concentration Method; settings: ATCC6633, read-out: Minimal Inhibitory Conc.
[22] = test system: Escherichia coli No. 29; experiment: Minimal Inhibitory Concentration Method; settings: read-out: Minimal Inhibitory Conc.
[23] = test system: Shigella dysenteriae; experiment: Minimal Inhibitory Concentration Method; settings: read-out: Minimal Inhibitory Conc.

Clc1ccc(-c2nnn(CC#CI)n2)cc1 [Compound No. 25, 2-(1'-iodopropyn-3'-yl)-5-(p-chlorophenyl)tetrazole]
zone of inhibition at 250 µg/mL ([1]; 250 γ/ml): 13.2 mm | zone of inhibition at 500 µg/mL ([1]; 500 γ/ml): 13.7 mm | zone of inhibition at 250 µg/mL ([2]; 250 γ/ml): 11.2 mm | zone of inhibition at 500 µg/mL ([2]; 500 γ/ml): 11.1 mm | zone of inhibition at 250 µg/mL ([3]; 250 γ/ml): 16 mm | zone of inhibition at 500 µg/mL ([3]; 500 γ/ml): 15 mm | zone of inhibition at 250 µg/mL ([4]; NIHJJC2, 250 γ/ml): 13 mm | zone of inhibition at 500 µg/mL ([4]; NIHJJC2, 500 γ/ml): 13 mm | MIC [5]: 1.56 µg/mL (≈ 4.53 µM) | MIC [6]: 0.09 µg/mL (≈ 0.261 µM) | MIC [7]: 0.39 µg/mL (≈ 1.13 µM) | MIC [8]: 0.39 µg/mL (≈ 1.13 µM)

CCCc1nnn(CC#CI)n1 [Compound No. 5, 2-(1'-iodopropyn-3'-yl)-5-n-propyltetrazole]
MIC ([9]; Staphylococcus aureus, 209P): 12.5 µg/mL (≈ 45.3 µM) | MIC [10]: 12.5 µg/mL (≈ 45.3 µM) | MIC [11]: 50 µg/mL (≈ 181 µM) | MIC [12]: 25 µg/mL (≈ 90.6 µM) | MIC [13]: 6.25 µg/mL (≈ 22.6 µM) | MIC [14]: 100 µg/mL (≈ 362 µM) | MIC ([15]; Proteus vulgaris, OX19, read-out: Minimal Inhibitory Conc.): 12.5 µg/mL (≈ 45.3 µM) | MIC ([16]; MB3848, Serratia marcescens MB-3848, read-out: Minimal Inhibitory Conc.): 25 µg/mL (≈ 90.6 µM) | MIC [17]: 100 µg/mL (≈ 362 µM) | MIC [18]: 25 µg/mL (≈ 90.6 µM) | MIC [5]: 0.78 µg/mL (≈ 2.83 µM) | MIC [19]: 0.78 µg/mL (≈ 2.83 µM) | MIC [6]: 0.05 µg/mL (≈ 0.181 µM) | MIC [7]: ≤ 0.05 µg/mL | MIC [8]: ≤ 0.05 µg/mL

Cc1nnnn1CC#CI [Compound No. 2, 1-(1'-Iodopropyn-3'-yl)-5-methyltetrazole]
MIC [5]: 1.56 µg/mL (≈ 6.29 µM) | MIC [19]: 0.78 µg/mL (≈ 3.14 µM) | MIC [6]: 0.78 µg/mL (≈ 3.14 µM) | MIC [7]: 0.78 µg/mL (≈ 3.14 µM) | MIC [8]: 0.75 µg/mL (≈ 3.02 µM)

CCCc1nnn(CC(I)=C(I)I)n1 [Compound No. 46, 2-(2',3',3'-triiodoallyl)-5-n-propyltetrazole]
MIC [5]: 1.56 µg/mL (≈ 2.94 µM) | MIC [19]: 0.78 µg/mL (≈ 1.47 µM) | MIC [6]: ≤ 0.05 µg/mL | MIC [7]: 0.09 µg/mL (≈ 0.17 µM) | MIC [8]: 0.39 µg/mL (≈ 0.736 µM)

Clc1ccc(-c2nnnn2CC#CI)cc1 [Compound No. 26, 1-(1'-Iodopropyn-3'-yl)-5-(p-chlorophenyl)tetrazole]
MIC [5]: 0.78 µg/mL (≈ 2.26 µM) | MIC [19]: 0.78 µg/mL (≈ 2.26 µM) | MIC [6]: < 0.04 µg/mL | MIC [7]: 0.19 µg/mL (≈ 0.551 µM) | MIC [8]: 0.78 µg/mL (≈ 2.26 µM)

CCCCCCCc1nnn(CC(I)=C(I)I)n1 [Compound No. 40, 2-(2',3',3'-triiodoallyl)-5-n-heptyltetrazole]
MIC [5]: 6.25 µg/mL (≈ 10.7 µM) | MIC [19]: 6.25 µg/mL (≈ 10.7 µM) | MIC [6]: 0.78 µg/mL (≈ 1.33 µM) | MIC [7]: 0.78 µg/mL (≈ 1.33 µM) | MIC [8]: 6.25 µg/mL (≈ 10.7 µM)

CC(C)(C)c1nnn(CC(I)=C(I)I)n1 [Compound No. 44, 2-(2',3',3'-triiodoallyl)-5-tert.-butyltetrazole]
MIC [5]: 50 µg/mL (≈ 91.9 µM) | MIC [19]: 50 µg/mL (≈ 91.9 µM) | MIC [6]: 0.39 µg/mL (≈ 0.717 µM) | MIC [7]: 0.39 µg/mL (≈ 0.717 µM) | MIC [8]: 6.25 µg/mL (≈ 11.5 µM)

Clc1cc(Cl)cc(-c2nnn(CC#CI)n2)c1 [Compound No. 30, 2-(1'-Iodopropyn-3'-yl)-5-(3",5"-dichlorophenyl)tetrazole]
MIC [5]: 0.78 µg/mL (≈ 2.06 µM) | MIC [19]: 0.78 µg/mL (≈ 2.06 µM) | MIC [6]: 0.09 µg/mL (≈ 0.237 µM) | MIC [7]: ≤ 0.05 µg/mL | MIC [8]: 0.19 µg/mL (≈ 0.501 µM)

COc1ccc(-c2nnn(CC#CI)n2)cc1 [Compound No. 24, 2-(1'-Iodopropyn-3'-yl)-5-(p-methoxyphenyl)tetrazole]
MIC [5]: 12.5 µg/mL (≈ 36.8 µM) | MIC [19]: 50 µg/mL (≈ 147 µM) | MIC [6]: ≤ 0.05 µg/mL | MIC [7]: 0.09 µg/mL (≈ 0.265 µM) | MIC [8]: 1.56 µg/mL (≈ 4.59 µM)

CC(C)c1nnn(CC(I)=C(I)I)n1 [Compound No. 48, 2-(2',3',3'-triiodoallyl)-5-isopropyltetrazole]
MIC ([9]; Staphylococcus aureus 209P JC-1): 1.56 µg/mL (≈ 2.94 µM) | MIC [20]: 0.39 µg/mL (≈ 0.736 µM) | MIC [21]: 0.39 µg/mL (≈ 0.736 µM) | MIC [22]: 6.25 µg/mL (≈ 11.8 µM) | MIC [12]: 12.5 µg/mL (≈ 23.6 µM) | MIC [23]: 3.13 µg/mL (≈ 5.91 µM) | MIC ([15]; OX19, Proteus vulgaris OX-19, read-out: Minimal Inhibitory Conc.): 6.25 µg/mL (≈ 11.8 µM) | MIC ([16]; Serratia marcescens, MB3848, read-out: Minimal Inhibitory Conc.): 12.5 µg/mL (≈ 23.6 µM) | MIC [17]: 6.25 µg/mL (≈ 11.8 µM) | MIC [5]: 12.5 µg/mL (≈ 23.6 µM) | MIC [19]: 12.5 µg/mL (≈ 23.6 µM) | MIC [6]: 0.78 µg/mL (≈ 1.47 µM) | MIC [7]: 0.78 µg/mL (≈ 1.47 µM) | MIC [8]: 3.13 µg/mL (≈ 5.91 µM)

CCCc1nnnn1CC(I)=C(I)I [Compound No. 47, 1-(2',3',3'-triiodoallyl)-5-n-propyltetrazole]
MIC [5]: 6.25 µg/mL (≈ 11.8 µM) | MIC [19]: 6.25 µg/mL (≈ 11.8 µM) | MIC [6]: ≤ 0.05 µg/mL | MIC [7]: 0.09 µg/mL (≈ 0.17 µM) | MIC [8]: 0.78 µg/mL (≈ 1.47 µM)
